The source of these data is patent publication US20240360153A1 (Regeneron Pharmaceuticals, Inc., priority 2023, published 2024).

pIC50: −log10 of the molar value. Where only a bound is given, the exact number is not on record here.

What is called CLint scaled is the capacity of the preparation to metabolise the compound, expressed as a volume cleared per time. A high value points to rapid turnover. For orientation: microsomal CLint means the capacity of the preparation to metabolise the compound, expressed as a volume cleared per time. A high value points to rapid turnover. Broadly, the half-life is the time in which the quantity being followed falls by half. The term pIC50 denotes the negative decadic logarithm of the IC50, by convention in mol/L. High values mean a small IC50, low ones a large IC50. By inhibition is commonly meant the drop in the measured response relative to a control, in per cent. A higher inhibition goes with strong suppression.

Series [1] can be described thus: In vitro microsomal metabolic stability, human liver microsomes. It counts as in vitro ADME. As to conditions: for Remaining (T = 60 min) / Remaining (T = NCF60 min) / half-life at 1 µM: Human liver microsomes; for Remaining (T = 60 min): with NADPH; for Remaining (T = NCF60 min): without NADPH regenerating system; for Remaining (T = 60 min) / Remaining (T = NCF60 min): 60 min; for CLint scaled at 1 µM / microsomal CLint at 1 µM: human, human liver microsomes; for CLint scaled at 1 µM / microsomal CLint at 1 µM / half-life at 1 µM: pH 7.2; for half-life at 1 µM: 0.5 mg/ml protein, NADPH. Here is the method: (§1) Buffers: PBK Buffer: 50 mM potassium phosphate buffer (PPB), pH 7.2, with 3.3 mM Magnesium Chloride.
(§2) TA Intermediate solution: Compound or control (3 μL) diluted from stock solution (10 mM) with 297 μL 90.0% methanol/water. (Conc: 100 μM; 1.0% DMSO, 89.1% MeOH).
(§3) Control cocktail intermediate solution: Each control (3 μL) was diluted with 291 μL 90.0% methanol/water.
(§4) Diluted TA intermediate stock solution and PC control stock were made by transferring 80 μL of 100 μM TA stock solution into new tubes and then adding 720 μL of 1.0% DMSO in 50 mM potassium phosphate buffer (conc. 10 μM; 1.0% DMSO, 8.91% MeOH).
(§5) Preparation of Liver microsomes working solution (1.25×)(final Conc.: 0.5 mg/mL).
(§6) Acetonitrile:methanol (9:1, v/v)(including 200 ng/mL tolbutamide and 200 ng/ml labetalol hydrochloride as internal standards).
(§7) Working solution: Intermediate solution (80 μL) was diluted with 720 μL 1.0% DMSO in 50 mM potassium phosphate buffer (Conc.: 10 μM; 1.0% DMSO, 8.91% MeOH)
(§8) Procedure: Stock solution was added to each of the time point plates. Microsomes solution (360 μL/well), TA/PC (45 μL/well), and NADPH (45 μL/well) min. (Conc: 1.0 μM, 0.10% DMSO, 0.891% MeOH) were added to the incubation plates. To the T60 and NCF60 plate, TA (15 ul/well) and Microsomes (120 ul) were added. To the blank plate, microsome (50 ul/well) with stop solution (150 ul/well) were added. At the end of each time point, 50 ul/well was aliquoted from the incubation plate. The sampling plates were shaken for approximately 10 min. on a shaker and the samples were centrifuged at 4000 rpm for 15 min. Supernatant (120 μL) was transferred for LC/MS/MS.Compounds from Table 3 were incubated at 37° C. with liver microsomes (pooled from multiple donors) at 1 μM in the presence of a NADPH regenerating system at 0.5 mg/ml microsomal protein. Positive controls included testosterone (3A4 substrate), propafenone (2D6) and diclofenac (2C9), which were incubated with microsomes in the presence of an NADPH regenerating system. At time points (0, 5, 10, 20, 30 and 60 minutes), samples were removed and immediately mixed with cold acetonitrile containing the internal standard (IS). Test compounds incubated with microsomes without the NADPH regenerating system for 60 min are also included. A single point for each test condition (n=1) was obtained, and samples were analyzed by LC/MS/MS. Disappearance of the test compound was assessed based on peak area ratios of analyte/IS (no standard curve).
(Liver microsomes are a subcellular fraction often used to study metabolism.)

In series [2] the test system is S6K1 (Thr389) phosphorylation (mTORC1 activity) in wild-type (WT) 293T cells. In words: Inhibition of S6K1 (Thr389) phosphorylation in wild-type 293T cells (ELISA). It is filed as cell-based, human. As to conditions: for pIC50: Homo sapiens, HEK-293T, 2 h, wild-type 293T cells, 2 hours treatment; for extent of inhibition of S6K1 (Thr389) phosphorylation / fold lower potency compared with RAD001 (by IC50): wild-type cells; for extent of inhibition of S6K1 (Thr389) phosphorylation: with increasing concentrations. As to the method:
(§9) Treatment of wild-type (WT) and FKBP12 knock-out 293T cells with RAD001 (everolimus) and test compounds. WT and FKBP12 knock-out 293T cells were cultured in Dulbecco's modified Eagle's medium (Gibco #11971-025) supplemented with 10% fetal bovine serum (Gibco #26140-079). Cells were plated at a density of 15,000 cells per well in poly-D-Lysine coated 96-well plates (Corning, #354461) and were incubated at 37° C., 5% CO2 for 24 hours until they reached ˜80% confluence. Cells were treated with RAD001 or test compounds reconstituted in dimethyl sulfoxide (DMSO) using a 8-11-point dose range, from 0.001 pM to 10 μM. All treatments were performed in duplicates for 2 hours at 37° C. Cell culture media supplemented with blank dimethyl sulfoxide (DMSO) was used as a negative control for all compounds. Phosphorylated amounts of S6K1 (Thr389) were measured using an ELISA kit (Invitrogen 85-86052-11), following the manufacture's protocol.
(§10) S6K1 is an immediate downstream target of mTORC1 and therefore phosphorylation of S6K1 at Thr389 residue is used to measure mTORC1 activity (PMID: 16968213). Amounts of phosphorylated S6K1 (Thr389) were measured in WT and FKBP12 knock-out 293T cells treated with either RAD001 or Compound 44 (FIGS. 1A and 1B), and Compound 45 (FIGS. 1C and 1D).

Series [3] concerns S6K1 (Thr389) phosphorylation (mTORC1 activity) in FKBP12 knock-out 293T cells. In words: Inhibition of S6K1 (Thr389) phosphorylation in FKBP12 knock-out 293T cells (ELISA). It counts as cell-based, human. As to conditions: for selectivity for FKBP12 compared with RAD001 (in words): wild-type versus FKBP12 knock-out cells.
Text: Example Generation of FKBP 12 knock-out cells. A CRISPR/Cas9 system was used to deliver ribonucleoprotein complexes containing guide RNA sequences that target FKBP12 (ac[…], location 1369062; ccactactcac[…], location 1369181) in HEK293T cells using Lipofectamine CRISPRMAX transfection reagent (Invitrogen CMAX00008). Cell clones were screened by immunoblotting with anti-FKBP-specific antibody (Novus, NB300-508). Single cells that were deficient for FKBP12 protein were selected and cloned.
as §9, §10

Series [4] in a line: In vitro microsomal metabolic stability, CD-1 mouse liver microsomes. It is filed as in vitro ADME. As to conditions: for CLint scaled at 1 µM / microsomal CLint at 1 µM: CD-1, mouse, mouse liver microsomes, pH 7.2; for half-life at 1 µM: CD-1, pH 7.2, 0.5 mg/ml protein, NADPH; for half-life at 1 µM / Remaining (T = 60 min) / Remaining (T = NCF60 min): Mouse liver microsomes; for Remaining (T = 60 min): with NADPH; for Remaining (T = NCF60 min): without NADPH regenerating system; for Remaining (T = 60 min) / Remaining (T = NCF60 min): 60 min. As to the method:
as §1, §2, §3, §4, §5, §6, §7, §8

As to `CO[C@@H]1CC(C[C@@H](C)[C@@H]2CC[C@H](C)/C=C(\C)[C@@H](O)[C@@H](OC)C(=O)[C@H](C)C[C@H](C)/C=C/C=C/C=C(\C)C(Nc3cncc(C)n3)CC3CC[C@@H](C)[C@@](O)(O3)C(=O)C(=O)N3CCCC[C@H]3C(=O)O2)CC[C@H]1O` (stereo partly drawn) [Compound 28, (3S,6S,7E,9R,10R,12R,14S,15E,17E,19E,23S,26R,27R,34aS)-9,27-dihydroxy-3-((R)-1-((1S,3R,4R)-4-hydroxy-3-methoxycyclohexyl)propan-2-yl)-10-methoxy-6,8,12,14,20,26-hexamethyl-21-((6-methylpyrazin-2-yl)amino)-5,6,9,10,12,13,14,21,22,23,24,25,26,27,32,33,34,34a-octadecahydro-3H-23,27-epoxypyrido[2,1-c][1]oxa[4]azacyclohentriacontine-1,11,28,29(4H,31H)-tetraone], in series [1], the “Remaining (T = 60 min)” value stood at 19.40%, the “Remaining (T = NCF60 min)” value came out at 84.00%, the CLint scaled at 1 µM turned out to be 2.85 L/h/kg and the microsomal CLint at 1 µM came to 52.8 µL/min/mg. In series [1], the half-life at 1 µM was 26.3 min. Also, in series [2], the pIC50 was 8.52 and the “extent of inhibition of S6K1 (Thr389) phosphorylation” value (shortened to “extent of inhibition of S6K1”) is recorded as “complete inhibition”. Also, in series [3] (FKBP12 knock-out 293T cells), the “IC50 of inhibition of S6K1 (Thr389)” value is on record as “not measurable/detectable”. The “inhibition of S6K1 (Thr389) phosphorylation in the absence of FKBP12 (in words)” value (“inhibition of S6K1 … (in words)” below) in series [3] (FKBP12 knock-out cells) is reported as “behaved in a similar fashion to RAD001”. In addition, in series [3], the “selectivity for FKBP12 compared with RAD001 (in words)” value (shortened to “selectivity for FKBP12”) is reported as “not greater compared with RAD001”. Moreover, in series [4], the CLint scaled at 1 µM was 3.94 L/h/kg, the microsomal CLint at 1 µM came to 16.6 µL/min/mg, the half-life at 1 µM came out at 83.5 min and the “Remaining (T = 60 min)” value turned out to be 59.40%. Moreover, the “Remaining (T = NCF60 min)” value in series [4] is recorded as 106%.

`COc1cccc(NC2C[C@@H]3CC[C@@H](C)[C@@](O)(O3)C(=O)C(=O)N3CCCCC3C(=O)O[C@H]([C@H](C)C[C@@H]3CC[C@@H](O)[C@H](OC)C3)CC[C@H](C)/C=C(\C)[C@@H](O)[C@@H](OC)C(=O)[C@H](C)C[C@H](C)/C=C/C=C/C=C/2C)c1` (stereo partly drawn) [Compound 44, (3S,6S,7E,9R,10R,12R,14S,15E,17E,19E,23S,26R,27R,34aS)-9,27-dihydroxy-3-((R)-1-((1S,3R,4R)-4-hydroxy-3-methoxycyclohexyl)propan-2-yl)-10-methoxy-21-((3-methoxyphenyl)amino)-6,8,12,14,20,26-hexamethyl-5,6,9,10,12,13,14,21,22,23,24,25,26,27,32,33,34,34a-octadecahydro-3H-23,27-epoxypyrido[2,1-c][1]oxa[4]azacyclohentriacontine-1,11,28,29(4H,31H)-tetraone]: in series [1], the “Remaining (T = 60 min)” value is on record as 7.50%, the “Remaining (T = NCF60 min)” value amounted to 99%, the CLint scaled at 1 µM was 4.3 L/h/kg and the microsomal CLint at 1 µM came to 79.6 µL/min/mg. The half-life at 1 µM in series [1] was determined as 17.4 min. Also, in series [2], the pIC50 was 7.96, the “fold lower potency compared with RAD001 (by IC50)” value is recorded as ~17 fold and the “extent of inhibition of S6K1” value is listed as “completely inhibit”. For the same molecule, the “inhibition of S6K1 … (in words)” value in series [3] (FKBP12 knock-out cells) is given as “did not inhibit S6K1 phosphorylation at any tested concentration lower than 10 μM”. For the same molecule, the “fold less potent compared with RAD001” value in series [3] (FKBP12 knock-out cells, at similar level of inhibition) was ~100 fold. In series [3] (Homo sapiens, HEK-293T, FKBP12 knock-out cells, 10 μM (highest tested concentration)), the inhibition at 10 µM is ~30%. For the same molecule, the “selectivity for FKBP12” value in series [3] is “relatively more selective for FKBP12 compared to RAD001”. Moreover, in series [4], the CLint scaled at 1 µM was 9.72 L/h/kg, the microsomal CLint at 1 µM was 41 µL/min/mg, the half-life at 1 µM came to 33.8 min and the “Remaining (T = 60 min)” value came out at 31%. Also, the “Remaining (T = NCF60 min)” value in series [4] was found to be 96%.

As to `CO[C@@H]1C[C@H](C[C@@H](C)[C@@H]2CC[C@H](C)/C=C(\C)[C@@H](O)[C@@H](OC)C(=O)[C@H](C)C[C@H](C)/C=C/C=C/C=C(\C)C(Nc3ccc(Cl)cc3)C[C@@H]3CC[C@@H](C)[C@@](O)(O3)C(=O)C(=O)N3CCCCC3C(=O)O2)CC[C@H]1O` (stereo partly drawn) [Compound 48, (3S,6S,7E,9R,10R,12R,14S,15E,17E,19E,23S,26R,27R,34aS)-21-((4-chlorophenyl)amino)-9,27-dihydroxy-3-((R)-1-((1S,3R,4R)-4-hydroxy-3-methoxycyclohexyl)propan-2-yl)-10-methoxy-6,8,12,14,20,26-hexamethyl-5,6,9,10,12,13,14,21,22,23,24,25,26,27,32,33,34,34a-octadecahydro-3H-23,27-epoxypyrido[2,1-c][1]oxa[4]azacyclohentriacontine-1,11,28,29(4H,31H)-tetraone], in series [1], the “Remaining (T = 60 min)” value is 32%, the “Remaining (T = NCF60 min)” value worked out at 107%, the CLint scaled at 1 µM stood at 2.27 L/h/kg and the microsomal CLint at 1 µM was 42.1 µL/min/mg. The half-life at 1 µM in series [1] is 33 min. In addition, in series [2], the pIC50 is 8.01, the “fold lower potency compared with RAD001 (by IC50)” value came out at 30 fold and the “extent of inhibition of S6K1” value is given as “near complete inhibition”. Further, the “inhibition of S6K1 … (in words)” value in series [3] (FKBP12 knock-out cells) is given as “did not inhibit S6K1 (Thr389)phosphorylation at any tested concentrations”. Also, in series [3], the “selectivity for FKBP12” value is recorded as “relatively more selective to FKBP12 compared with RAD001”. In series [4], the microsomal CLint at 1 µM is < 9.6 µL/min/mg, the half-life at 1 µM is > 145 min, the “Remaining (T = 60 min)” value was 101% and the “Remaining (T = NCF60 min)” value stood at 150%.
